In the assay the target is T1, SmPAL (Streptomyces maritimus, UniProt Q9KHJ9).
T1 construct: gene encP; native gene amplified from pHB-104, expressed from pHCMS-SmPAL (PH36 promoter) in Corynebacterium glutamicum ATCC 13032; 56 kDa; no tag mentioned; whole cells, not purified
T1 sequence (Q9KHJ9 1-523): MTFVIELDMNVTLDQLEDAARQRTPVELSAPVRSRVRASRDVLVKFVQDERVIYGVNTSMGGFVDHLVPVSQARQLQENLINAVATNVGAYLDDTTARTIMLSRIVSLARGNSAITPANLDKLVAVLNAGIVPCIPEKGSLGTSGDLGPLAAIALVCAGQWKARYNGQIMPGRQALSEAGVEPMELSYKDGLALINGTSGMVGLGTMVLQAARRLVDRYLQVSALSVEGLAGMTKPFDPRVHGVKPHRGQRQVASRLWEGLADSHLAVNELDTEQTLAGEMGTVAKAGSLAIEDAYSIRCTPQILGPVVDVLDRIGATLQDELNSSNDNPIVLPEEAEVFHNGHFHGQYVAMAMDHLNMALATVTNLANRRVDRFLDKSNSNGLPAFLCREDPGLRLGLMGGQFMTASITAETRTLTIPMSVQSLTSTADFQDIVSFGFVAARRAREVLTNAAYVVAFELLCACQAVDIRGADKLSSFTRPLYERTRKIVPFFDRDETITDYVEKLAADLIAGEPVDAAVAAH
Kind of assay: whole-cell bioconversion, HPLC of L-Phe and t-CA. The class given is cell-based. The settings on record: C. glutamicum harboring pHCMS-SmPAL; 18.2 mM L-Phe; 100 mM Tris-HCl pH 7.5; 30 °C; product trans-cinnamic acid.

As for `N[C@@H](Cc1ccccc1)C(=O)O` [L-phenylalanine], the “whole-cell bioconversion, HPLC of L-Phe and t-CA” value is “the bioconversion of L-Phe to t-CA was immediately observed”.

The record behind these values is paper PMC8310591, “Production of trans-cinnamic acid by whole-cell bioconversion from L-phenylalanine in engineered Corynebacterium glutamicum” (Microbial Cell Factories, 2021).
